From the PolyMetriX glass transition set come the findings set out here.

In the case of `*/C(=C/c1cc(OC)c(/C=C(\c2ccc(F)cc2)c2ccc3cc(*)ccc3c2)cc1OC)c1ccc(F)cc1` (repeat unit), the glass transition temperature is 208.00 °C.
Compound `*/C(=C/c1cc(OC)c(/C=C(\c2ccccc2)c2ccc3cc(*)ccc3c2)cc1OC)c1ccccc1` (repeat unit) came in with a glass transition temperature of 198.00 °C.
In the case of `*/C(=C/c1ccc(/C=C(\c2ccccc2)c2ccc(-c3ccc(*)cc3)cc2)cc1)c1ccccc1` (repeat unit) it was 220.00 °C.
Turning to `*/C(C#N)=C/c1cc(OCCCCCCCC)c(/C=C(\C#N)c2cc(OCCCCCCCC)c(*)cc2OC)cc1OC` (repeat unit), the glass transition temperature turned out to be 174.00 °C.
Consider `*/C(C#N)=C/c1cc(OCCCCCCCCCC)c(/C=C(\C#N)c2cc(OCCCCCCCCCC)c(*)cc2OC)cc1OC` (repeat unit), for which the glass transition temperature amounted to 198.00 °C.
In the case of `*/C=C(\C#N)C(=O)OCCCCCCCCCCOC(=O)/C(C#N)=C/c1ccc2c(c1)c1cc(*)ccc1n2CCCCCCCCCCCCCC` (repeat unit), the glass transition temperature was 35.00 °C.
In the case of `*/C=C/C(*)(C)C` (repeat unit), the glass transition temperature is -9.00 °C.
In turn, `*/C=C/C(*)(C)c1ccccc1` (repeat unit) yielded a glass transition temperature of 52.00 °C.
With `*/C=C/C(C(=O)OCc1ccccc1)C(*)C(=O)OCc1ccccc1` (repeat unit) the figure was 21.00 °C; with `*/C=C/C(C)(C(=O)OC)C(*)C` (repeat unit), 34.00 °C; with `*/C=C/C(C)C(*)C(=O)OC12CC3CC(CC(C3)C1)C2` (repeat unit), 115.00 °C.
Consider `*/C=C/C(C)C(*)C(=O)OCCCN(C)c1ccc(N(C)C)cc1` (repeat unit), for which the glass transition temperature came to 11.50 °C.
For the compound `*/C=C/C(C)C(*)C(=O)OCCN(C)c1ccc(N(C)C)cc1` (repeat unit), the glass transition temperature came out at 20.50 °C.
For the compound `*/C=C/C(C*)COCC(=O)OCCCCCCCCOc1ccc(/C=C/c2ccc([N+](=O)[O-])cc2)cc1` (repeat unit), the glass transition temperature stood at 23.00 °C.
For the compound `*/C=C/C(COCc1ccccc1)C(*)COCc1ccccc1` (repeat unit), the glass transition temperature is -4.00 °C.
`*/C=C/C1=C(*)CC(C(=O)OCC)(C(=O)OCC)C1` (repeat unit) returned a glass transition temperature of 27.7 °C.
Regarding `*/C=C/C1CC(*)C(C#N)([Si](C)(C)C)C1` (repeat unit), the glass transition temperature was 211.00 °C.
With `*/C=C/C1CC(*)C(C(=O)OC(C)(C)C)C1C(=O)OC(C)(C)C` (repeat unit) the figure was 83.40 °C.
In turn, `*/C=C/C1CC(*)C(C(=O)Oc2ccccc2)C1C(=O)Oc1ccccc1` (repeat unit) displayed a glass transition temperature of 96.50 °C.
In turn, `*/C=C/C1CC(*)C(F)(F)C1(F)OC(F)(F)C(F)(F)C(F)(F)F` (repeat unit) displayed a glass transition temperature of 77.00 °C.
Compound `*/C=C/C1CC(*)C2C(=O)N(c3ccc(C)cc3)C(=O)C12` (repeat unit) had a glass transition temperature of 222.00 °C.
On to `*/C=C/C1CC(*)C2C(=O)N(c3cccc(C)c3)C(=O)C12` (repeat unit), for which the glass transition temperature amounted to 206.00 °C.
On to `*/C=C/CCCCCC*` (repeat unit), for which the glass transition temperature was -78.00 °C.
With `*/C=C/CCCCCCCCCC*` (repeat unit) the figure was -53.00 °C.
Take `*/C=[CH]/[Ge]([*])([c]1ccccc1)[c]1ccccc1` (repeat unit): the glass transition temperature is -36.00 °C.
For the compound `*/C=[CH]/[Ge](/[CH]=C/[Si](*)(c1ccccc1)c1ccccc1)([c]1ccccc1)[c]1ccccc1` (repeat unit), the glass transition temperature turned out to be 28.00 °C.
`*/C=C/[Si](*)(c1ccccc1)c1ccccc1` (repeat unit) came in with a glass transition temperature of -9.00 °C.
For `*C(=O)c1ccc2c(c1)C(=O)N(CC1(C)CC(N3C(=O)c4ccc(*)cc4C3=O)CC(C)(C)C1)C2=O` (repeat unit), the glass transition temperature was found to be 275.00 °C.
Regarding `*C/C=C/COC(=O)C(Cc1ccccc1)NC(=O)/C=C/C(=O)NC(Cc1ccccc1)C(=O)O*` (repeat unit), the glass transition temperature is 109.00 °C.
Compound `*C1C(*)C2CC1C(C(=O)OCC1CC3CCC1C3)C2C(=O)OCC1CC2CCC1C2` (repeat unit) displayed a glass transition temperature of 320.00 °C.
In the case of `*C1C(*)C2CC1C(C(=O)OCCC1CC3CCC1C3)C2C(=O)OCCC1CC2CCC1C2` (repeat unit), the glass transition temperature is 260.00 °C.
Take `*C1C(*)C2CC1C(C(=O)OCCCc1ccccc1)C2C(=O)OCCCc1ccccc1` (repeat unit): the glass transition temperature turned out to be 200.00 °C.
In the case of `*C1C(*)C2CC1C(C(=O)OCCc1ccccc1)C2C(=O)OCCc1ccccc1` (repeat unit) it was 254.00 °C.
In turn, `*C1C(=O)N(c2ccc(O[Si](C)(C)C(C)(C)C)cc2)C(=O)C1*` (repeat unit) came in with a glass transition temperature of 169.00 °C.
With `*C1C(=O)N(c2ccc(O[Si](c3ccccc3)(c3ccccc3)c3ccccc3)cc2)C(=O)C1*` (repeat unit), the glass transition temperature worked out at 183.00 °C.
Consider `*C1C(=O)N(c2ccccc2C(=O)OCC)C(=O)C1*` (repeat unit), for which the glass transition temperature came out at 230.00 °C.
Consider `*C1C(=O)N(c2ccccc2C(=O)OCCCC)C(=O)C1*` (repeat unit), for which the glass transition temperature amounted to 181.00 °C.
Take `*C1C2CC(C1*)C([Si](C)(C)C)C2` (repeat unit): the glass transition temperature amounted to 303.00 °C.
Consider `*C1C2CC(CCCCCCCCC(=O)OCC)C(C2)C1*` (repeat unit), for which the glass transition temperature is 134.00 °C.
Regarding `*C1CCC(CC2CCC(N3C(=O)C4C5C=CC(C6C(=O)N(*)C(=O)C56)C4C3=O)CC2)CC1` (repeat unit), the glass transition temperature came out at 239.00 °C.
With `*C1CCCC(S(*)(=O)=O)C1` (repeat unit) the figure was 108.00 °C; with `*C1CCCCC1S(*)(=O)=O` (repeat unit), 77.00 °C; with `*C1Cc2ccccc2C1*` (repeat unit), 188.50 °C.
In the case of `*C1OC(C(F)(F)F)(C(F)(F)F)OC1(*)F` (repeat unit) it was 256.00 °C; in that of `*C1OCOC(C(*)(F)F)C1(F)F` (repeat unit), 125.00 °C; in that of `*C1Oc2ccccc2C1*` (repeat unit), 65.20 °C.
In the case of `*CC(=O)c1ccc(Oc2ccc(C(=O)COc3ccc(/C=C4\CCC/C(=C\c5ccc(O*)c(OC)c5)C4=O)cc3OC)cc2)cc1` (repeat unit), the glass transition temperature worked out at 211.8 °C.
For the compound `*CC(O)COC(=O)CCCCC(=O)OCC(O)COc1ccc(/C=C(\C)c2ccc(O*)cc2)cc1` (repeat unit), the glass transition temperature amounted to 33.00 °C.
Turning to `*CC1(C)CC(N2C(=O)c3ccc(-c4ccc5c(c4)C(=O)N(*)C5=O)cc3C2=O)CC(C)(C)C1` (repeat unit), the glass transition temperature came to 311.00 °C.
In turn, `*CC1(C)CC(N2C(=O)c3ccc(Oc4ccc5c(c4)C(=O)N(*)C5=O)cc3C2=O)CC(C)(C)C1` (repeat unit) displayed a glass transition temperature of 266.00 °C.
Regarding `*CCCCCCCCCCOc1ccc(/C=C2\CCC/C(=C\c3ccc(O*)c(OC)c3)C2=O)cc1OC` (repeat unit), the glass transition temperature stood at 60.00 °C.
As for `*CCCCCCCCCCOc1ccc(/C=C2\CCC/C(=C\c3ccc(O*)cc3)C2=O)cc1` (repeat unit), the glass transition temperature stood at 85.00 °C.
Turning to `*CCCCCCCCOc1c(OC)cc(/C=C2\CCC/C(=C\c3cc(OC)c(O*)c(OC)c3)C2=O)cc1OC` (repeat unit), the glass transition temperature is 62.00 °C.
As to `*CCCCCCCCOc1ccc(/C=C2\CC/C(=C\c3ccc(OCCCCCCCCOP(=O)(O*)OC)c(OC)c3)C2=O)cc1OC` (repeat unit), the glass transition temperature stood at 73.00 °C.
Turning to `*CCCCCCOC(=O)C(Cc1ccccc1)NC(=O)/C=C/C(=O)NC(Cc1ccccc1)C(=O)O*` (repeat unit), the glass transition temperature was determined as 92.00 °C.
For the compound `*CCCCCCOc1ccc(/C=C2\CC/C(=C\c3ccc(OCCCCCCOP(=O)(O*)OC)c(OC)c3)C2=O)cc1OC` (repeat unit), the glass transition temperature was found to be 74.00 °C.
Turning to `*CCCCCCOc1ccc(/C=C2\CCC/C(=C\c3ccc(O*)cc3)C2=O)cc1` (repeat unit), the glass transition temperature turned out to be 116.00 °C.
In the case of `*CCCCOc1ccc(/C=C2\CC/C(=C\c3ccc(OCCCCOP(=O)(O*)OC)c(OC)c3)C2=O)cc1OC` (repeat unit) it was 75.00 °C.
With `*CCOC(=O)/C=C/C(=O)NCCCCCCNC(=O)/C=C/C(=O)O*` (repeat unit) the figure was 89.00 °C.
For `*CCOC(=O)/C=C/C(=O)O*` (repeat unit), the glass transition temperature was -10.00 °C.
As to `*CCOCCOC(=O)/C=C/C(=O)NCCCCCCNC(=O)/C=C/C(=O)O*` (repeat unit), the glass transition temperature came to 76.00 °C.
Compound `*CCOCCOCCOCCOCCOc1ccc(/C=C(\C)c2ccc(O*)cc2)cc1` (repeat unit) came in with a glass transition temperature of 17.00 °C.
With `*Oc1ccc(/C(=C/c2cc(OC)c(/C=C(/c3ccc(*)cc3)c3ccc(C(F)(F)F)cc3)cc2OC)c2ccc(C(F)(F)F)cc2)cc1` (repeat unit) the figure was 194.00 °C; with `*Oc1ccc(/C=C2\CCC/C(=C\c3ccc(OC(=O)c4cccc(C(*)=O)c4)c(OC)c3)C2=O)cc1OC` (repeat unit), 57.86 °C.
With `*c1ccc(N2C(=O)CC(C3C=C(C)C4C(=O)N(*)C(=O)C4C3)C2=O)cc1` (repeat unit) the figure was 327.00 °C; with `*c1ccc(Oc2ccc(N3C(=O)C4CCC(C5CCC6C(=O)N(*)C(=O)C6C5)CC4C3=O)cc2)cc1` (repeat unit), 257.00 °C; with `*c1ccc(Oc2ccc(N3C(=O)CC(C4C=C(C)C5C(=O)N(*)C(=O)C5C4)C3=O)cc2)cc1` (repeat unit), 278.00 °C.
As to `*c1ccc(Oc2ccc(S(=O)(=O)c3ccc(Oc4ccc(N5C(=O)C6CCC(C7CCC8C(=O)N(*)C(=O)C8C7)CC6C5=O)cc4)cc3)cc2)cc1` (repeat unit), the glass transition temperature is 256.50 °C.
